Data as given in patent US20210392889A1, “COMPOSITIONS COMPRISING PYRIDINE CARBOXYLATE HERBICIDES WITH PDS INHIBITOR HERBICIDES” (Corteva Agriscience LLC, priority 2018, published 2021).

How the values were obtained:
[1] = tested on: Italian ryegrass (LOLMU, Lolium multiflorum.); experiment: Greenhouse postemergence herbicidal effect, visual injury after 20-22 d; type: in vivo; conditions: Table 4
Summary of the method: (§1)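 Plants grown in greenhouse (~14 h photoperiod, ~23/22 °C day/night) to the second or third true leaf stage were sprayed overhead at 187 L/ha with pyridine carboxylate herbicide (with cloquintocet-mexyl safener) alone or combined with a PDS inhibitor, in 1.25% v/v methylated/esterified seed oil. Injury versus solvent-blank controls was scored visually 0–100%.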

[2] = tested on: broad-leaf dock (RUMOB, Rumex obtusifolius); experiment: as above; type: in vivo; conditions: Table 4
Summary of the method: as §1

[3] = tested on: wild pansy (VIOTR, Viola tricolor); experiment: as above; type: in vivo
Summary of the method: as §1

spring barley (HORVS) = experiment: Greenhouse postemergence phytotoxicity on crop, visual injury after 20-22 d; type: in vivo, Hordeum vulgare; conditions: for visual injury: Table 1
From the text: Seeds of the desired test plant species were planted in a 90:10% v/v (volume/volume) mixture of PRO-MIX® BX (Premier Tech Horticulture, Quakertown, Pa., USA) and PROFILE® GREENS GRADE™ (Profile Products LLC, Buffalo Grove, Ill., USA) planting mixture, which typically has a pH of 5.2 to 6.2 and an organic matter content of at least 50 percent, in plastic pots with a surface area of 103.2 square centimeters (cm^2). In some aspects, to ensure good germination and healthy plants, a fungicide treatment and/or other chemical or physical treatment was applied. The plants were grown for 7-36 days (d) in a greenhouse with an approximate 14-hour (h) photoperiod which was maintained at about 23° C. during the day and 22° C. during the night. Nutrients and water were added on a regular basis and supplemental lighting was provided with overhead metal halide 1000-Watt lamps as necessary. The plants were employed for testing when they reached the second or third true leaf stage.
Emulsifiable concentrates of each of each pyridine carboxylate herbicide (Compound A or Compound B) were prepared at 100 grams acid equivalent per liter (g ae/L). The emulsifiable concentrates also included a safener, cloquintocet-mexyl, at 120 grams active ingredient per liter (g ai/L). An aliquot of each emulsifiable concentrate was placed in a 25 mL glass vial and diluted with an aqueous mixture of 1.25% (v/v) ACTIROB® B esterified rapeseed oil (Bayer Crop Science, Research Triangle Park, N.C., USA) or MSO® Concentrate with LECI-TECH® methylated soybean oil (Loveland Products, Loveland, Colo., USA) to obtain concentrated stock solutions at the highest application rate for each herbicide, based upon a 12 milliliter (mL) application volume at a rate of 187 liters per hectare (L/ha). The concentrated stock solutions were further diluted with an aqueous mixture of 1.25% v/v ACTIROB® B or MSO® Concentrate with LECI-TECH® to obtain stock solutions at reduced application rates for each herbicide. Spray solutions of the herbicide combinations (Compound A or Compound B plus PDS inhibitor herbicide) were prepared by adding weighed amounts or aliquots of the PDS inhibitor herbicide to the stock solutions of Compound A or Compound B to form 12-mL spray solutions in two- or three-way combinations.
The spray solutions were applied to the plant material with an overhead Mandel track sprayer equipped with 8002E nozzles calibrated to deliver 187 L/ha over an application area of 0.503 square meters (m^2) at a spray height of 18 inches ([…] centimeters (cm)) above the average plant canopy. Control plants were sprayed in the same manner with the solvent blank. All pyridine carboxylate herbicide (component a) application rates are given as “g ae/ha” and all PDS inhibitor herbicide (component b) application rates are given as “g ai/ha.”
The treated plants and control plants were placed in a greenhouse as described above and watered by sub-irrigation to prevent wash-off of the test compounds. After 20-22 d, the condition of the test plants as compared with that of the control plants was determined visually and scored on a scale of 0 to 100 percent where 0 corresponds to no injury and 100 corresponds to complete kill.

**Q.** `N#CCOC(=O)c1nc(-c2ccc3cc[nH]c3c2F)c(F)c(N)c1Cl` [Compound A, cyanomethyl 4-amino-3-chloro-5-fluoro-6-(7-fluoro-1H-indol-6-yl)pyridine-2-carboxylate] was tested. Which “visual injury Obs” value ([1]; 7.5 g/ha) did it give?
**A.** 0%

**Q.** What about the “visual injury Obs” value ([1]; 10 g/ha) of the same molecule?
**A.** 0%

**Q.** What about the “visual injury Obs” value ([2]; 7.5 g/ha) of the same molecule?
**A.** 8%

**Q.** And the “visual injury Obs” value ([2]; 10 g/ha)?
**A.** 10%

**Q.** What about the “visual injury Obs” value ([3]; 7.5 g/ha, Table 4) of the same molecule?
**A.** 10%

**Q.** What about the “visual injury Obs” value ([3]; 7.5 g/ha, Table 5) of the same molecule?
**A.** 3%

**Q.** What about the “visual injury Obs” value ([3]; 7.5 g/ha, Table 6) of the same molecule?
**A.** 3%

**Q.** What about the “visual injury Obs” value ([3]; 10 g/ha, Table 4) of the same molecule?
**A.** 18%

**Q.** And the “visual injury Obs” value ([3]; 10 g/ha, Table 5)?
**A.** 3%

**Q.** And the “visual injury Obs” value ([3]; 10 g/ha, Table 6)?
**A.** 3%

**Q.** What about the visual injury (spring barley (HORVS); 7.5 g/ha) of the same molecule?
**A.** 0%

**Q.** What about the “visual injury Obs” value (spring barley (HORVS); 7.5 g/ha, Table 2) of the same molecule?
**A.** 8%

**Q.** And the “visual injury Obs” value (spring barley (HORVS); 7.5 g/ha, Table 3)?
**A.** 0%

**Q.** What about the “visual injury Obs” value (spring barley (HORVS); 7.5 g/ha, Table 7) of the same molecule?
**A.** 0%

**Q.** What about the “visual injury Obs” value (spring barley (HORVS); 7.5 g/ha, Table 8) of the same molecule?
**A.** 8%

**Q.** And the visual injury (spring barley (HORVS); 10 g/ha)?
**A.** 0%

**Q.** What about the “visual injury Obs” value (spring barley (HORVS); 10 g/ha, Table 2) of the same molecule?
**A.** 0%

**Q.** And the “visual injury Obs” value (spring barley (HORVS); 10 g/ha, Table 3)?
**A.** 0%

**Q.** What about the “visual injury Obs” value (spring barley (HORVS); 10 g/ha, Table 7) of the same molecule?
**A.** 0%

**Q.** And the “visual injury Obs” value (spring barley (HORVS); 10 g/ha, Table 8)?
**A.** 5%

**Q.** What about the “visual injury Obs” value (spring barley (HORVS); 15 g/ha, Table 8) of the same molecule?
**A.** 3%
